# Assay results published in patent US7381521B2, “Anti-pathogenic composition useful in blood preservation” (Altachem Pharma Ltd., priority 2001, dated 2008).
# Legend:
# [1] = tested on: HIV-1 virus; experiment: Infectivity of HIV-1 treated 10 minutes with product for normal human T lymphocytes (reverse transcriptase activity, ATI, in culture supernatants); assay type: cell-based
# From the text: Infectivity is studied on T lymphocytes obtained from peripheral blood of a healthy human donor and separated on a Ficoll gradient.
# The lymphocytes are stimulated for 3 days by phytohaemaglutinin P (PHA P) diluted to 1/500 and cultivated in a complete medium. The blastic cells T are infected by the virus, treated or not, in order to show up residual infectious strength.
# The viruses obtained from a supernatant culture of an HIV-1 infected CEM line. This T lymphoblastoid line infected by HIV-1 is used for viral production.
# The titer of the supernatant substances used is evaluated after quantitative analysis of the reverse transcriptase activity (ATI) of the virus.
# In the following tests, a supernatant substance was used, the ATI of which was 1.8×10^6 cpm/ml.
# Preparation of the viral solution: several tubes containing 1 ml viral supernatant, ATI 1.8×10^6 cmp/ml are, concentrated by ultracentrifugation. The resulting virus residues are taken up either by each of the different dilutions of QACs produced in sterile bidistilled water or by water (untreated control virus).
# Treatment of viral preparations: the concentrated viral preparations are all treated according to the following procedure:
# Treated virus samples: the virus residues concentrated by ultracentrifugation are resuspended in 100, μl of each of the concentrations in terms of products (QACs) studied and incubated for 10 minutes.
# Control viral sample: untreated control virus: the product is replaced by 100 μl of sterile bidistilled water.
# Following this 10 minute incubation time, the virus present in each sample is rinsed and then reconcentrated by addition of 12 ml of RPMI 1640 medium and ultracentrifugation. The virus residues are then taken up in 1 ml of complete medium and used for infecting normal human T lymphocytes.
# Measurement of the infectivity of the samples: 4×10^6 normal human T lymphocytes are infected with each of the treated viral preparations or controls mentioned hereinabove. Infection of the T cells is carried out according to a previously described method (F. Barre Sinoussi et al. Science, 1983, 220:868-871): to sum up, 4×10^6 cells in suspension in 1 ml of complete medium are incubated with 1 ml of each of the treated vial preparations or controls for 1 hour at 37° C.
# After two washings using several millilitres of culture medium, the cellular suspensions are adjusted to the concentration of 1×10^6 cells per ml. The day of the infection is regarded as day 0.
# Viral production during the course of time is determined by measuring the reverse transcriptase activity present in the culture supernatants using the procedure described below.
# This quantitative analysis makes it possible to evaluate the presence of noninactivated residual virus in the staring sample. It is carried out on a basis of 1 ml of culture supernatant taken every 2 or 3 days and ultracentrifuged.
# The enzymatic activities are measured in 50 μl of a reaction mixture containing 50 mM Tris pH 7.8, 20 mM MgCl2, 20 mM KCl, 2 mM dithiotreitol, 0.25 OD/ml, oligo dT, 0.25 OD/ml poly rA, 0.1% Triton×100 and 2.5 μCi 3H DTTP.
# After incubation for 1 hour at 37° C., the reaction is stopped by the addition of 10 μl of 0.2 M EDTA and the samples are deposited on DE81 membranes.
# After several washings using 5% Na2HPO4, then by distilled water, the membranes are dried and the radioactivity measured by means of a p scintillation counter (PACKARD).
# [2] = tested on: Candida albicans ATCC 1031; experiment: Test 2 (DGHM), growth inhibition by dilutions, 72 hours at 37° C.; assay type: cell-based
# Method: Another test was carried out a basis of the following solutions • 100 ml of a 0.1% solution of chlorohexidine digluconate (pH 6); and • 100 ml of a 0.1% solution of Bardac22®.
# The activity of these solutions, alone or in combination, was more particularly tested in respect of Staphylococcus aureus ATCC 6538, Escherichia coli ATCC 11229 and Candida albicans ATCC 10231.
# The tests were conducted in accordance with the procedure described in Chapter I/2.1 and 2.2 of Tichtlinien für die Prüfung und Bewertung chemischer Desinfektionsverfahren der DGHM/Guidelines for Testing and Evaluating Chemical Disinfection Processes of DGHM as at 1.1, 1981.
# Tables IX, X and XI respectively illustrate the bactericidal and fungicidal activity of a 0.1% aqueous solution of chlorohexidine digluconate, a 0.1% aqueous solution of Bardac22® and a mixture of equal parts of both compounds. The procedures of which these Tables illustrate the results comprise incubation of 72 hours at 37° C. and the use of the following inactivating substances as controls: • A: 3% Tween®80+0.3% lecithin+0.1% cysteine • B: 3% Tween®80+3% saponin+0.1% cysteine+0.1% histidine; • C: 3% Tween®80+0.3% lecithin+0.1% histidine+0.5% sodium thiosulphate.
# In these Tables, the sign “+” indicates an increase and the sign “−” denotes the absence of growth.
# [3] = 0.00625% vol/vol, inactivator A
# [4] = 0.00625% vol/vol, inactivator B
# [5] = 0.00625% vol/vol, inactivator C
# [6] = 0.00625% vol/vol, no inactivator
# [7] = 0.0125% vol/vol, no inactivator
smiles,measurement,setting,value
"CCCCCCCCCC[N+](C)(C)CCCCCCCCCC.[Cl-] [Bardac ®, didecyl dimethyl ammonium chloride]",ATI in supernatant,"[1]; Bardac 0.0004%, J3",702 cpm/ml
same,ATI in supernatant,"[1]; Bardac 0.0004%, J6",18136 cpm/ml
same,ATI in supernatant,"[1]; Bardac 0.0004%, J10",117326 cpm/ml
same,ATI in supernatant,"[1]; Bardac 0.0004%, J13",74214 cpm/ml
same,ATI in supernatant,"[1]; Bardac 0.0004%, J17",50674 cpm/ml
same,ATI in supernatant,"[1]; Bardac 0.0004%, J20",22478 cpm/ml
same,ATI in supernatant,"[1]; Bardac 0.0004%, J23",13806 cpm/ml
same,ATI in supernatant,"[1]; Bardac 0.0004%, J27",7800 cpm/ml
same,ATI in supernatant,"[1]; Bardac 0.0004%, J30",4426 cpm/ml
same,ATI in supernatant,"[1]; Bardac 0.002%, J3",464 cpm/ml
same,ATI in supernatant,"[1]; Bardac 0.002%, J6",2472 cpm/ml
same,ATI in supernatant,"[1]; Bardac 0.002%, J10",16066 cpm/ml
same,ATI in supernatant,"[1]; Bardac 0.002%, J13",24902 cpm/ml
same,ATI in supernatant,"[1]; Bardac 0.002%, J17",77754 cpm/ml
same,ATI in supernatant,"[1]; Bardac 0.002%, J20",75554 cpm/ml
same,ATI in supernatant,"[1]; Bardac 0.002%, J23",101394 cpm/ml
same,ATI in supernatant,"[1]; Bardac 0.002%, J27",80560 cpm/ml
same,ATI in supernatant,"[1]; Bardac 0.002%, J30",64692 cpm/ml
same,ATI in supernatant,"[1]; Bardac 0.004%, J3",346 cpm/ml
same,ATI in supernatant,"[1]; Bardac 0.004%, J6",298 cpm/ml
same,ATI in supernatant,"[1]; Bardac 0.004%, J10",160 cpm/ml
same,ATI in supernatant,"[1]; Bardac 0.004%, J13",170 cpm/ml
same,ATI in supernatant,"[1]; Bardac 0.004%, J17",350 cpm/ml
same,ATI in supernatant,"[1]; Bardac 0.004%, J20",218 cpm/ml
same,ATI in supernatant,"[1]; Bardac 0.004%, J23",444 cpm/ml
same,ATI in supernatant,"[1]; Bardac 0.004%, J27",244 cpm/ml
same,ATI in supernatant,"[1]; Bardac 0.004%, J30",264 cpm/ml
same,ATI in supernatant,"[1]; Bardac 0.006%, J3",320 cpm/ml
same,ATI in supernatant,"[1]; Bardac 0.006%, J6",326 cpm/ml
same,ATI in supernatant,"[1]; Bardac 0.006%, J10",204 cpm/ml
same,ATI in supernatant,"[1]; Bardac 0.006%, J13",248 cpm/ml
same,ATI in supernatant,"[1]; Bardac 0.006%, J17",364 cpm/ml
same,ATI in supernatant,"[1]; Bardac 0.006%, J20",180 cpm/ml
same,ATI in supernatant,"[1]; Bardac 0.006%, J23",328 cpm/ml
same,ATI in supernatant,"[1]; Bardac 0.006%, J27",588 cpm/ml
same,ATI in supernatant,"[1]; Bardac 0.006%, J30",196 cpm/ml
same,ATI in supernatant,"[1]; Bardac 0.01%, J3",334 cpm/ml
same,ATI in supernatant,"[1]; Bardac 0.01%, J6",222 cpm/ml
same,ATI in supernatant,"[1]; Bardac 0.01%, J10",1768 cpm/ml
same,ATI in supernatant,"[1]; Bardac 0.01%, J13",1592 cpm/ml
same,ATI in supernatant,"[1]; Bardac 0.01%, J17",190 cpm/ml
same,ATI in supernatant,"[1]; Bardac 0.01%, J20",390 cpm/ml
same,ATI in supernatant,"[1]; Bardac 0.01%, J23",1328 cpm/ml
same,ATI in supernatant,"[1]; Bardac 0.01%, J27",780 cpm/ml
same,ATI in supernatant,"[1]; Bardac 0.01%, J30",1000 cpm/ml
same,concentration of active substance inhibiting growth,[2],0.0001%
same,dilution of the 0.1% solution inhibiting growth,[2],0.1%
same,growth,[2]; [3],+
same,growth,[2]; [4],+
same,growth,[2]; [5],+
same,growth,[2]; [6],+
same,growth,"[2]; 0.0125% vol/vol, inactivator A",+
same,growth,"[2]; 0.0125% vol/vol, inactivator B",+
same,growth,"[2]; 0.0125% vol/vol, inactivator C",+
same,growth,[2]; [7],+
same,growth,"[2]; 0.025% vol/vol, inactivator A",+
same,growth,"[2]; 0.025% vol/vol, inactivator B",+
same,growth,"[2]; 0.025% vol/vol, inactivator C",+
same,growth,"[2]; 0.025% vol/vol, no inactivator",+
same,growth,"[2]; 0.05% vol/vol, inactivator A",+
same,growth,"[2]; 0.05% vol/vol, inactivator B",+
same,growth,"[2]; 0.05% vol/vol, inactivator C",+
same,growth,"[2]; 0.05% vol/vol, no inactivator",+
same,growth,"[2]; 0.1% vol/vol, inactivator A",+
same,growth,"[2]; 0.1% vol/vol, inactivator B",+
same,growth,"[2]; 0.1% vol/vol, inactivator C",+
same,growth,"[2]; 0.1% vol/vol, no inactivator",−
same,growth,"[2]; 0.5% vol/vol, inactivator A",+
same,growth,"[2]; 0.5% vol/vol, inactivator B",+
same,growth,"[2]; 0.5% vol/vol, inactivator C",+
same,growth,"[2]; 0.5% vol/vol, no inactivator",−
same,growth,"[2]; 1.0% vol/vol, inactivator A",+
same,growth,"[2]; 1.0% vol/vol, inactivator B",+
same,growth,"[2]; 1.0% vol/vol, inactivator C",+
same,growth,"[2]; 1.0% vol/vol, no inactivator",−
"[H]/N=C(\N/C(=N/[H])NCCCCCCNC(=N)NC(=N)Nc1ccc(Cl)cc1)Nc1ccc(Cl)cc1 [Chlorhexidine, chlorohexidine digluconate, reference compound]",ATI in supernatant,"[1]; Chlorhexidine 0.005%, J3",360 cpm/ml
same,ATI in supernatant,"[1]; Chlorhexidine 0.005%, J10",580 cpm/ml
same,ATI in supernatant,"[1]; Chlorhexidine 0.005%, J30",720 cpm/ml
same,ATI in supernatant,"[1]; Chlorhexidine 0.01%, J10",200 cpm/ml
same,ATI in supernatant,"[1]; Chlorhexidine 0.01%, J13",250 cpm/ml
same,ATI in supernatant,"[1]; Chlorhexidine 0.01%, J17",230 cpm/ml
same,ATI in supernatant,"[1]; Chlorhexidine 0.01%, J27",420 cpm/ml
same,concentration of active substance inhibiting growth,[2],0.001%
same,dilution of the 0.1% solution inhibiting growth,[2],1%
same,growth,[2]; [3],+
same,growth,[2]; [4],+
same,growth,[2]; [5],+
same,growth,[2]; [6],+
same,growth,"[2]; 0.0125% vol/vol, inactivator A",+
same,growth,"[2]; 0.0125% vol/vol, inactivator B",+
same,growth,"[2]; 0.0125% vol/vol, inactivator C",+
same,growth,[2]; [7],+
same,growth,"[2]; 0.025% vol/vol, inactivator A",+
same,growth,"[2]; 0.025% vol/vol, inactivator B",+
same,growth,"[2]; 0.025% vol/vol, inactivator C",+
same,growth,"[2]; 0.025% vol/vol, no inactivator",+
same,growth,"[2]; 0.05% vol/vol, inactivator A",+
same,growth,"[2]; 0.05% vol/vol, inactivator B",+
same,growth,"[2]; 0.05% vol/vol, inactivator C",+
same,growth,"[2]; 0.05% vol/vol, no inactivator",+
same,growth,"[2]; 0.1% vol/vol, inactivator A",+
same,growth,"[2]; 0.1% vol/vol, inactivator B",+
same,growth,"[2]; 0.1% vol/vol, inactivator C",+
same,growth,"[2]; 0.1% vol/vol, no inactivator",+
same,growth,"[2]; 0.5% vol/vol, inactivator A",+
same,growth,"[2]; 0.5% vol/vol, inactivator B",+
same,growth,"[2]; 0.5% vol/vol, inactivator C",+
same,growth,"[2]; 0.5% vol/vol, no inactivator",+
same,growth,"[2]; 1.0% vol/vol, inactivator A",+
same,growth,"[2]; 1.0% vol/vol, inactivator B",+
same,growth,"[2]; 1.0% vol/vol, inactivator C",+
same,growth,"[2]; 1.0% vol/vol, no inactivator",−
